Test results as given in patent publication US20230029554A1, “ORGANOID CULTURES” (THE WALTER AND ELIZA HALL INSTITUTE OF MEDECAL RESEARCH, priority 2019, published 2023).

Experiments:
[1] = physiological concentrations observed in patients; cited from earlier work
[2] = tested on: colorectal cancer organoids; test: Inhibition of colorectal cancer organoid growth by bortezomib (cell killing control); type: cell-based, human; conditions: at 1 μM; three cancer organoids; image analysis and CellTitreGlo 3D (FIG. 17)
Experimental: The bortezomib concentration of 1 um was selected as positive (killing) control, indicated by the dashed red line.
Organoids were digested with TrypLE Express enzyme at 37° C. for 15-20 min. Digestion was terminated in 1% BSA in DMEM/F12 and fragments were collected by centrifugation. Pellets were resuspended in culture medium, dissociated with a 26 G needle and filtered through a 40 μm cell strainer (Bio-Strategy, BDAA352340) to produce a single cell suspension. Live cells were counted using a hemocytometer and trypan blue staining. Single cells (3000 cells in 60 μl/well) were suspended in culture medium with 3% Matrigel, penicillin-streptomycin, normocin and 10 μM Y27632 and seeded in 384-well optical plates (Thermo Fisher Scientific, NUN242764) using a MANTIS® liquid handling robot (Formulatrix), and established for 3 days prior to drug addition. […]
Plate uniformity in the 384-well format was evaluated for maximum (Max) signals, minimum (Min) signals, and drug dose-dependent midpoint (Mid) signals (FIG. 15c-f). […] Organoid viability was determined by both image analysis and CellTiter-Glo 3D luminescence measurements. Mean organoid size and luminescence signals were visualized as heatmaps for each plate and plotted by wells for each plate row from left to right or as drug dose-response curves.

[3] = tested on: cancer organoid WCB123LU; test: Regorafenib dose-response in 384-well LVM suspension culture, image analysis (mean organoid size); type: cell-based; conditions: Homo sapiens, 168 h, imaging, 7 days drug, 3% Matrigel, read-out: Mean ED50
Experimental: (§1) Organoids were digested with TrypLE Express enzyme at 37° C. for 15-20 min. Digestion was terminated in 1% BSA in DMEM/F12 and fragments were collected by centrifugation. Pellets were resuspended in culture medium, dissociated with a 26 G needle and filtered through a 40 μm cell strainer (Bio-Strategy, BDAA352340) to produce a single cell suspension. Live cells were counted using a hemocytometer and trypan blue staining. Single cells (3000 cells in 60 μl/well) were suspended in culture medium with 3% Matrigel, penicillin-streptomycin, normocin and 10 μM Y27632 and seeded in 384-well optical plates (Thermo Fisher Scientific, NUN242764) using a MANTIS® liquid handling robot (Formulatrix), and established for 3 days prior to drug addition. For plate uniformity studies, 1 μM bortezomib (Selleck, S1013) was used as the positive control, and 0.5% DMSO (Sigma, D2650) was used as a negative vehicle control. For the drug-dose response curves, regorafenib (Selleck, S1178) was used in a 9 point 4-fold titration series starting at 50 μM. All compound plates were prepared using a JANUS liquid handling robot (PerkinElmer) and stamped into 384-well plates using an integrated PinTool addition accessory (PerkinElmer).
(§2) PDTOs were imaged every 24 h for 7 days by bright-field microscopy as z-stacks on an automated Eclipse Ti2 Inverted Microscope System with an integrated tissue culture incubator (Nikon). 384-well images were captured using a 4× dry objective and Nikon Eclipse Ti2 software with a 25 μm Z-stack over a range of 500 μm. On day 7, 20μl CellTiter-Glo 3D reagent (Promega, G9683) was added using the MANTIS® liquid handling robot, plates were shaken at 1000 rpm for 30 mins at room temperature and luminescence measured using an EnVision plate reader (PerkinElmer).
(§3) For image analysis, flattening of Z-stack bright-field images, removal of background debris and selection of organoids were performed using ImageJ software (NIH Image). The projection of z-stack images onto a single in-focus image was carried out using the Extended Depth of Field (EDF) plugin in “easy mode”, with the parameter quality=′1′ and topology=1′. Processed images were exported as high-quality tiff files. Background debris removal was performed by with a series of steps including Subtract Background, Enhance Local Contrast (CLAHE), set AutoThreshold, set Black Background, and Convert to Mask. Organoid selection and feature extraction were achieved using sequential Analyze Particles, Invert LUT, Fill Holes, Watershed, Set Measurements and Analyze Particles steps. Features of selected organoids were exported as text files for determination of mean organoid size.
(§4) For comparison of uniformity of regorafenib dose response curves between imaging and CellTitreGlo 3D data, response curves were fitted using a 4-parameter log-logistic function to percent viability data.
(§5) Plate uniformity in the 384-well format was evaluated for maximum (Max) signals, minimum (Min) signals, and drug dose-dependent midpoint (Mid) signals (FIG. 15c-f). To determine Max signals, organoids were established for 3 days, treated with 0.5% DMSO (vehicle control) using a JANUS Automated Liquid Handling Workstation with a 384 pin tool, and incubated for 7 days. […] To evaluate dose-dependent Mid signals, regorafenib was titrated across each half of the assay plate in a 9-step, 4-fold dilution series starting from 50 μM, generating a total of 24 drug dose-response curves. Organoid viability was determined by both image analysis and CellTiter-Glo 3D luminescence measurements. Mean organoid size and luminescence signals were visualized as heatmaps for each plate and plotted by wells for each plate row from left to right or as drug dose-response curves.

[4] = tested on: cancer organoid WCB024T; test: as above; type: cell-based; conditions: Homo sapiens, 168 h, imaging, 7 days drug, 3% Matrigel, read-out: Mean ED50
Experimental: as §1, §2, §3, §4, §5

[5] = tested on: cancer organoid WCB088T; test: as above; type: cell-based; conditions: Homo sapiens, 168 h, imaging, 7 days drug, 3% Matrigel, read-out: Mean ED50
Experimental: as §1, §2, §3, §4, §5

[6] = tested on: mitochondrial function; conditions: Weng, Z. et al. (2015) Toxicology 327, 10-21; cited from earlier work
[7] = tested on: cancer organoid WCB123LU; test: Regorafenib dose-response in 384-well LVM suspension culture, CellTitre-Glo 3D viability assay; type: cell-based; conditions: Homo sapiens, 168 h, 7 days drug, 3% Matrigel, read-out: Mean ED50
Experimental: as §1, §2, §4, §5

[8] = tested on: cancer organoid WCB024T; test: as above; type: cell-based; conditions: Homo sapiens, 168 h, 7 days drug, 3% Matrigel, read-out: Mean ED50
Experimental: as §1, §2, §4, §5

[9] = tested on: cancer organoid WCB088T; test: as above; type: cell-based; conditions: Homo sapiens, 168 h, 7 days drug, 3% Matrigel, read-out: Mean ED50
Experimental: as §1, §2, §4, §5

Molecule: O=C1[O][Pt]2([NH][C@@H]3CCCC[C@H]3[NH]2)[O]C1=O [oxaliplatin]
- Cmax [1]: ~5 µM

Molecule: CC(C)C[C@H](NC(=O)[C@H](Cc1ccccc1)NC(=O)c1cnccn1)B(O)O [bortezomib]
- growth inhibition (cell killing control) [2]: complete growth inhibition

Molecule: O=c1[nH]cc(F)c(=O)[nH]1 [5-FU, 5-fluorouracil]
- Cmax [1]: ~7.5 µM

Molecule: CNC(=O)c1cc(Oc2ccc(NC(=O)Nc3ccc(Cl)c(C(F)(F)F)c3)c(F)c2)ccn1 [regorafenib]
- Cmax [1]: ~7.3 µM
- EC50 ([3]; Mid (Left) plate half): 1230 nM
- EC50 ([3]; Mid (Right) plate half): 1560 nM
- EC50 ([4]; Mid (Left) plate half): 1540 nM
- EC50 ([4]; Mid (Right) plate half): 2280 nM
- EC50 ([5]; Mid (Left) plate half): 6090 nM
- EC50 ([5]; Mid (Right) plate half): 10200 nM
- effect on mitochondrial function and cellular ATP levels [6]: impair mitochondrial function and decrease cellular ATP levels
- EC50 ([7]; Mid (Left) plate half): 1010 nM
- EC50 ([7]; Mid (Right) plate half): 1100 nM
- EC50 ([8]; Mid (Left) plate half): 3690 nM
- EC50 ([8]; Mid (Right) plate half): 5150 nM
- EC50 ([9]; Mid (Left) plate half): 1980 nM
- EC50 ([9]; Mid (Right) plate half): 3410 nM

Molecule: CCc1c2c(nc3ccc(O)cc13)-c1cc3c(c(=O)n1C2)COC(=O)[C@]3(O)CC [SN-38]
- Cmax [1]: ~0.14 µM

Molecule: TAS-102
- Cmax [1]: ~18.2 µM
